What was measured:
myeloperoxidase (MPO) [1] = target: T1, myeloperoxidase (MPO) (Homo sapiens (Human), UniProt P05164); test: MPO peroxidation assay (Amplex Red assay); assay type: biochemical; details: potency range class
Procedure: MPO Peroxidation Assay (Amplex Red Assay) MPO peroxidation activity was measured in 100 mM KPi (pH 7.4) by utilizing the non-fluorescent reagent Amplex Red (Invitrogen Cat. #A12222) which can be oxidized to the highly fluorescent resorufin. Amplex Red is oxidized by the peroxidase action of MPO to resorufin. Reactions were carried out in 50 μL total volume by adding a 25 μL mixture of 200 pM myeloperoxidase and 40 nM H2O2(Sigma #349887) to 100 nL inhibitor in 100% DMSO in a 384 well Perkin Elmer Optiplate. Enzyme and compound were preincubated for ten minutes at room temperature. After the ten minute preincubation, 25 μL of an Amplex Red mixture containing 200 μM Amplex Red and 10 mM H2O2 was added to the plate. Kinetic determinations were carried out immediately on a Perkin Elmer Envision (15 minute kinetic read, Ex: 535 nm, Em: 590 nm). IC50 values were calculated by determining the slope of the linear portion of the kinetic trace (180-540 secs), and using that calculated slope to determine % inhibition occurring at each concentration of inhibitor using the following equation: [formula] where A=minimal Y value (activity level of inhibited sample), B=maximal Y value (activity level of uninhibited sample), C=Log IC50, D=Hill Slope, x=concentration of inhibitor. MPO Chlorination Assay (APF Assay)

myeloperoxidase (MPO) [2] = target: T1, myeloperoxidase (MPO); test: MPO chlorination assay (APF assay); assay type: biochemical; details: potency range class
Procedure: [formula] where A=minimal Y value (activity level of inhibited sample), B=maximal Y value (activity level of uninhibited sample), C=Log IC50, D=Hill Slope, x=concentration of inhibitor. MPO Chlorination Assay (APF Assay) MPO chlorination activity was measured in 100 mM KPi (pH 7.4) by utilizing the non-fluorescent reagent Aminophenyl fluorescein (APF, Invitrogen Cat. #A36003). APF is cleaved by (—OCl) to yield the fluorescent compound fluorescein. Reactions were carried out in 50 μL total volume by adding a 25 μL mixture of 200 pM myeloperoxidase and 120 mM NaCl to 100 nL inhibitor in 100% DMSO in a 384 well, non-binding surface clear bottom plate (Corning #3655). Enzyme, inhibitor, and chloride were preincubated for ten minutes at room temperature. After the ten minute preincubation, 25 μL of an APF mixture containing […], 120 mM NaCl and 10 μM H2O2 was added to the plate using the internal dispensing system of a Hammatsu FDSS 6000. Kinetic determinations were carried out immediately on the FDSS 6000 (3 minute kinetic read, 1 read every second, ex: 485 nm, em: 535 nm). IC50 values for inhibitors were calculated by taking the slope of the linear portion of the kinetic measurement (20 seconds to ˜80-120 secs). IC50 values were calculated by determining the slope of the linear portion of the kinetic trace […], and using that calculated slope to determine % inhibition occurring at each concentration of inhibitor using the following equation: [formula] where A=minimal Y value (activity level of inhibited sample), B=maximal Y value (activity level of uninhibited sample), C=Log IC50, D=Hill Slope, x=concentration of inhibitor. EPX Bromination Assay

T1 sequence (P05164 49-745): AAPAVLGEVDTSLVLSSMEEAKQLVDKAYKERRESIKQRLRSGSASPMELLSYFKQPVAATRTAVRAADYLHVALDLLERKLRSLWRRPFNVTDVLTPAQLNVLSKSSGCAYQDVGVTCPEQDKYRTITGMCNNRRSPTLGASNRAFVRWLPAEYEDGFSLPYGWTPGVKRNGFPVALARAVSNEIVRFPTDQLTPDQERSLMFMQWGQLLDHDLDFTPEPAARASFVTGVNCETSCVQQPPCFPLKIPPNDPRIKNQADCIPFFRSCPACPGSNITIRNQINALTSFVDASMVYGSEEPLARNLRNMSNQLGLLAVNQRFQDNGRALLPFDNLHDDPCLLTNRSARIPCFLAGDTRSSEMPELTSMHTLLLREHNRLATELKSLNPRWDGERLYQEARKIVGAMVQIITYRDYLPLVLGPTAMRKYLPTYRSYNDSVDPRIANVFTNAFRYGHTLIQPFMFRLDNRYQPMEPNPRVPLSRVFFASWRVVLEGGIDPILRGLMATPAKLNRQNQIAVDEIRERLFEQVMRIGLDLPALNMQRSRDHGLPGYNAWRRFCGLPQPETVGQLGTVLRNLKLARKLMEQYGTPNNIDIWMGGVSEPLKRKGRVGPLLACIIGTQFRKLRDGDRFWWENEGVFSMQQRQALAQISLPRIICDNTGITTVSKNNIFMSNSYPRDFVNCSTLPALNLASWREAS

Row | Compound | IC50 (myeloperoxidase (MPO) [1]) [nM] | IC50 (myeloperoxidase (MPO) [2]) [nM]
1 | Nc1cc(Cc2cnn(Cc3cccc(OCCC4CCc5ccccc54)c3)c2)c2nn[nH]c2n1 (centres unmarked) [Example 233, 7-{[1-({3-[2-(2,3-Dihydro-1H-inden-1-yl)ethoxy]phenyl}methyl)-1H-pyrazol-4-yl]methyl}-3H-[1,2,3]triazolo[4,5-b]pyridin-5-amine] | 101 to 999 | 101 to 999
2 | Nc1cc(Cc2cnn(Cc3ccc4c(c3)CCN(C(=O)c3ncc[nH]3)C4)c2)c2nn[nH]c2n1 [Example 131, (6-((4-((5-Amino-3H-[1,2,3]triazolo[4,5-b]pyridin-7-yl)methyl)-1H-pyrazol-1-yl)methyl)-3,4-dihydroisoquinolin-2(1H)-yl)(1H-imidazol-2-yl)methanone] | 101 to 999 | 101 to 999
3 | Cc1cccc(-n2cc(Cc3cc(N)nc4[nH]nnc34)cn2)n1 [Example 20, 7-((1-(6-Methylpyridin-2-yl)-1H-pyrazol-4-yl)methyl)-3H-[1,2,3]triazolo[4,5-b]pyridin-5-amine] | 1 to 100 | 1 to 100
4 | Nc1cc(Cc2cnn(Cc3cccc(N4CCNC(c5cccc(Cl)c5)C4)c3)c2)c2nn[nH]c2n1 (centres unmarked) [Example 218, 7-{[1-({3-[3-(3-Chlorophenyl)piperazin-1-yl]phenyl}methyl)-1H-pyrazol-4-yl]methyl}-3H-[1,2,3]triazolo[4,5-b]pyridin-5-amine] | 101 to 999 | 1 to 100
5 | Nc1cc(Cc2cnn(Cc3ccccc3Cc3ccccc3)c2)c2nn[nH]c2n1 [Example 265, 7-({1-[(2-Benzylphenyl)methyl]-1H-pyrazol-4-yl}methyl)-3H-[1,2,3]triazolo[4,5-b]pyridin-5-amine] | 1 to 100 | 1 to 100
6 | Cc1cnc(CNC(=O)c2ccc(Cn3cc(Cc4cc(N)nc5[nH]nnc45)cn3)cc2)cn1 [Example 91, 4-{[4-({5-Amino-3H-[1,2,3]triazolo[4,5-b]pyridin-7-yl}methyl)-1H-pyrazol-1-yl]methyl}-N-[(5-methylpyrazin-2-yl)methyl]benzamide] | 1 to 100 | 101 to 999
7 | Nc1cc(Cc2cnn(Cc3cccc(N4CCNC5(CCC5)C4)c3)c2)c2nn[nH]c2n1 [Example 225, 7-({1-[(3-{5,8-Diazaspiro[3.5]nonan-8-yl}phenyl)methyl]-1H-pyrazol-4-yl}methyl)-3H-[1,2,3]triazolo[4,5-b]pyridin-5-amine] | 101 to 999 | 1 to 100
8 | Nc1cc(Cc2cnn(Cc3cccc(C4(O)CCNCC4F)c3)c2)c2nn[nH]c2n1 (centres unmarked) [Example 213, 4-(3-{[4-({5-Amino-3H-[1,2,3]triazolo[4,5-b]pyridin-7-yl}methyl)-1H-pyrazol-1-yl]methyl}phenyl)-3-fluoropiperidin-4-ol] | 1 to 100 | 101 to 999
9 | Nc1cc(Cc2cnn(Cc3cccc([C@@H]4CNC(=O)C4)c3)c2)c2nn[nH]c2n1 [Example 189, (R)-4-(3-((4-((5-Amino-3H-[1,2,3]triazolo[4,5-b]pyridin-7-yl)methyl)-1H-pyrazol-1-yl)methyl)phenyl)pyrrolidin-2-one] | 1 to 100 | 101 to 999
10 | Nc1cc(Cc2cnn(Cc3cc(Cl)cc([C@@H]4CCNC4)c3)c2)c2nn[nH]c2n1 [Example 196, 7-{[1-({3-Chloro-5-[(3S)-pyrrolidin-3-yl]phenyl}methyl)-1H-pyrazol-4-yl]methyl}-3H-[1,2,3]triazolo[4,5-b]pyridin-5-amine] | 1 to 100 | 1 to 100
11 | Nc1cc(Cc2cnn(Cc3ccc(C(=O)NCCN4CCOCC4)cc3)c2)c2nn[nH]c2n1 [Example 75, 4-{[4-({5-Amino-3H-[1,2,3]triazolo[4,5-b]pyridin-7-yl}methyl)-1H-pyrazol-1-yl]methyl}-N-[2-(morpholin-4-yl)ethyl]benzamide] | 101 to 999 | 101 to 999
12 | Nc1cc(Cn2ncc(-c3ccccc3)n2)c2nn[nH]c2n1 [Example 161, 7-[(4-Phenyl-2H-1,2,3-triazol-2-yl)methyl]-3H-[1,2,3]triazolo[4,5-b]pyridin-5-amine] | 101 to 999 | 1000 to 10000
13 | Nc1cc(Cc2cnn(Cc3cccc(N4CCNCC4Cc4ccccc4)c3)c2)c2nn[nH]c2n1 (centres unmarked) [Example 227, 7-[(1-{[3-(2-Benzylpiperazin-1-yl)phenyl]methyl}-1H-pyrazol-4-yl)methyl]-3H-[1,2,3]triazolo[4,5-b]pyridin-5-amine] | 101 to 999 | 101 to 999
14 | CC(C)(C)OC(=O)N1CCCc2ccc(Cn3cc(Cc4cc(N)nc5[nH]nnc45)cn3)cc21 [Example 147, tert-Butyl 7-{[4-({5-amino-3H-[1,2,3]triazolo[4,5-b]pyridin-7-yl}methyl)-1H-pyrazol-1-yl]methyl}-1,2,3,4-tetrahydroquinoline-1-carboxylate] | 101 to 999 | 101 to 999
15 | Nc1cc(Cc2cnn(Cc3cccc(C4CCCN4)c3)c2)c2nn[nH]c2n1 (centres unmarked) [Example 208, 7-[(1-{[3-(Pyrrolidin-2-yl)phenyl]methyl}-1H-pyrazol-4-yl)methyl]-3H-[1,2,3]triazolo[4,5-b]pyridin-5-amine] | 1 to 100 | 1 to 100
16 | CN(C)CCN(C)C(=O)c1ccc(Cn2cc(Cc3cc(N)nc4[nH]nnc34)cn2)cc1 [Example 77, 4-{[4-({5-Amino-3H-[1,2,3]triazolo[4,5-b]pyridin-7-yl}methyl)-1H-pyrazol-1-yl]methyl}-N-[2-(dimethylamino)ethyl]-N-methylbenzamide] | 1 to 100 | 101 to 999
17 | CS(=O)(=O)c1cccc(Cn2cc(Cc3cc(N)nc4[nH]nnc34)cn2)c1 [Example 122, 7-((1-(3-(Methylsulfonyl)benzyl)-1H-pyrazol-4-yl)methyl)-3H-[1,2,3]triazolo[4,5-b]pyridin-5-amine] | 1 to 100 | 101 to 999
18 | Nc1cc(Cc2cnn(CC3CC(Cc4ccc(F)cc4)CN3)c2)c2nn[nH]c2n1 (centres unmarked) [Example 281, 7-{[1-({4-[(4-Fluorophenyl)methyl]pyrrolidin-2-yl}methyl)-1H-pyrazol-4-yl]methyl}-3H-[1,2,3]triazolo[4,5-b]pyridin-5-amine] | 1 to 100 | 1 to 100
19 | Nc1cc(Cc2cnn(-c3cccc(-c4ccccc4)c3)c2)c2nn[nH]c2n1 [Example 11, 7-((1-([1,1′-Biphenyl]-3-yl)-1H-pyrazol-4-yl)methyl)-3H-[1,2,3]triazolo[4,5-b]pyridin-5-amine] | 1 to 100 | 1 to 100
20 | Nc1cc(Cc2cnn(Cc3ccc(CO)cc3)c2)c2nn[nH]c2n1 [Example 64, (4-((4-((5-Amino-3H-[1,2,3]triazolo[4,5-b]pyridin-7-yl)methyl)-1H-pyrazol-1-yl)methyl)phenyl)methanol] | 1 to 100 | 101 to 999
21 | Nc1cc(Cc2cnn(Cc3cccc(N4CCNCC4)c3)c2)c2nn[nH]c2n1 [Example 217, 7-[(1-{[3-(Piperazin-1-yl)phenyl]methyl}-1H-pyrazol-4-yl)methyl]-3H-[1,2,3]triazolo[4,5-b]pyridin-5-amine] | 1 to 100 | 101 to 999
22 | Nc1cc(Cc2cnn(Cc3cccc(CC4CCNCC4)c3)c2)c2nn[nH]c2n1 [Example 207, 7-[(1-{[3-(Piperidin-4-ylmethyl)phenyl]methyl}-1H-pyrazol-4-yl)methyl]-3H-[1,2,3]triazolo[4,5-b]pyridin-5-amine] | 1 to 100 | 101 to 999
23 | NCc1cccc(Cn2cc(Cc3cc(N)nc4[nH]nnc34)cn2)c1 [Example 249, 7-[(1-{[3-(Aminomethyl)phenyl]methyl}-1H-pyrazol-4-yl)methyl]-3H-[1,2,3]triazolo[4,5-b]pyridin-5-amine] | 1 to 100 | 101 to 999
24 | Nc1cc(Cc2cnn(-c3cccc(C(F)(F)F)c3)c2)c2nn[nH]c2n1 [Example 14, 7-((1-(3-(Trifluoromethyl)phenyl)-1H-pyrazol-4-yl)methyl)-3H-[1,2,3]triazolo[4,5-b]pyridin-5-amine] | 1 to 100 | 101 to 999
25 | Nc1cc(Cc2cnn(Cc3cccc(C4CNC4)c3)c2)c2nn[nH]c2n1 [Example 210, 7-[(1-{[3-(Azetidin-3-yl)phenyl]methyl}-1H-pyrazol-4-yl)methyl]-3H-[1,2,3]triazolo[4,5-b]pyridin-5-amine] | 1 to 100 | 1 to 100

— patent US10407422B2, “Triazolopyridine inhibitors of myeloperoxidase” (priority 2015, dated 2019)
